Results as given in patent publication US10782295B2, “Cysteine-reactive ligand discovery in proteomes” (THE SCRIPPS RESEARCH INSTITUTE, priority 2013, dated 2020).

How the values were obtained:
ZAK = ZAK (Homo sapiens, UniProt Q9NYL2); experiment: competitive isoTOP-ABPP, MDA-MB-231 soluble proteome; format: binding; design: directly in native proteomes; endogenous in cells; host or cells: MDA-MB-231; details: 60 min; for R value (isoTOP-ABPP ratio heavy/light) for IA-labeled cysteine of ZAK: 100 μM LDE, peptide FDDLQFFENC*GGGSFGSVYR
Experimental: (§1) Here, we envisioned that isoTOP-ABPP could be advanced to discover and quantify reactions between cysteines in proteomes and any electrophilic compound. In this advanced, ‘competitive’ version of isoTOP-ABPP (FIG. 1a), a proteome is treated with an electrophile (experimental sample) or DMSO (control sample). Both proteomic samples are then labeled with the IA probe and conjugated by CuAAC to light and heavy azide-biotin tags, respectively. The light and heavy samples are then mixed and subjected to our described isoTOP-ABPP protocol for enrichment, identification, and quantification of IA-labeled cysteines^30. Electrophile-modified cysteines are quantified by measuring the MS1 chromatographic peak ratios (R values) for heavy (DMSO-treated) over light (electrophile-treated) samples, with higher R values reflecting greater sensitivity to the electrophile. In this format, competitive isoTOP-ABPP can assay electrophiles against 1000+ cysteines in parallel directly in native proteomes without requiring any chemical modification to the electrophiles themselves.
(§2) Competitive isoTOP-ABPP experiments were performed in quadruplicate using the soluble proteome of the human breast cancer cell line MDA-MB-231 cell line. Proteomes were treated with 100 μM HNE, 15d-PGJ2, or 2-HD, for 60 minutes, followed by the IA-probe (100 μM, 60 min) A total of ˜1400 cysteine reactivities were quantified across the aggregate data set, with at least 900 cysteine reactivities quantified for each LDE (FIG. 2a) more than 750 of which were quantified for all the three electrophiles.
(§3) The MDA-MB-231 cell proteome was treated with varying concentrations of HNE (5, 10, 50, 100 and 500 μM) for 60 min and then the IA-labeling profile of each reaction was quantitatively compared to a DMSO-control sample by isoTOP-ABPP.
(§4) HNE was purchased from EMD biosciences, 15d-PGJ2 was purchased from Cayman Chemicals and 2-HD was purchased from Santa Cruz Biotechnology. Proteome samples were diluted to a 4 mg protein/mL solution in PBS. For each profiling experiment, one aliquot of the proteome sample (0.5 mL) was treated with 100 μM of LDE using 5 μL of a 10 mM stock and the other aliquot was treated with 5 μL of either ethanol (for HNE and 15d-PGJ2) or DMSO (for 2-HD) as control. For the concentration-dependent profiling experiments using HNE, aliquots of the proteomes (0.5 mL each) were treated with 5, 10, 50, 100 and 500 μM of HNE using 5 μL of 0.5, 1.0, 5, 10 and 50 mM of stock solution, respectively. After 60 minutes of treatment at room temperature, both the LDE-treated and control aliquots were passed through a NAP-5 Sephadex column (GE healthcare) to remove any unreacted LDE. The volume of each aliquot was increased to 1 mL with the concentration at 2 mg/mL after this step. […]

AHSG = experiment: as above; format: binding, human; details: 100 μM LDE, 60 min; peptide C*DSSPDSAEDVR
Experimental: as §1, §2
HNE was purchased from EMD biosciences, 15d-PGJ2 was purchased from Cayman Chemicals and 2-HD was purchased from Santa Cruz Biotechnology. Proteome samples were diluted to a 4 mg protein/mL solution in PBS. […]
IA-probe labeled peptides were identified by SEQUEST2 and DTASelect3, and the quantification of heavy/light ratios (isoTOP-ABPP ratios, R) was performed by an in-house software (CIMAGE) as previously described. […]

[1] = competitive isoTOP-ABPP, proteome-wide cysteine reactivity; format: binding, human; details: for proteome reactivity profile, high sensitivity (R>5) cysteine targets: 100 μM LDE, 60 min
Experimental: as §1, §2, §3
By combining the R values at all 5 HNE concentrations, we could extrapolate IC50 values for […] of IA probe-labeling for ˜700 of the 1100 cysteines (FIG. 3a).
as §4, with “respectively.” for “respectively. After 60 minutes of treatment at room temperature, both the LDE-treated and control aliquots were passed through a NAP-5 Sephadex column (GE healthcare) to remove any unreacted LDE. The volume of each aliquot was increased to 1 mL with the concentration at 2 mg/mL after this step.”

Sequence of ZAK (Q9NYL2 whole entry): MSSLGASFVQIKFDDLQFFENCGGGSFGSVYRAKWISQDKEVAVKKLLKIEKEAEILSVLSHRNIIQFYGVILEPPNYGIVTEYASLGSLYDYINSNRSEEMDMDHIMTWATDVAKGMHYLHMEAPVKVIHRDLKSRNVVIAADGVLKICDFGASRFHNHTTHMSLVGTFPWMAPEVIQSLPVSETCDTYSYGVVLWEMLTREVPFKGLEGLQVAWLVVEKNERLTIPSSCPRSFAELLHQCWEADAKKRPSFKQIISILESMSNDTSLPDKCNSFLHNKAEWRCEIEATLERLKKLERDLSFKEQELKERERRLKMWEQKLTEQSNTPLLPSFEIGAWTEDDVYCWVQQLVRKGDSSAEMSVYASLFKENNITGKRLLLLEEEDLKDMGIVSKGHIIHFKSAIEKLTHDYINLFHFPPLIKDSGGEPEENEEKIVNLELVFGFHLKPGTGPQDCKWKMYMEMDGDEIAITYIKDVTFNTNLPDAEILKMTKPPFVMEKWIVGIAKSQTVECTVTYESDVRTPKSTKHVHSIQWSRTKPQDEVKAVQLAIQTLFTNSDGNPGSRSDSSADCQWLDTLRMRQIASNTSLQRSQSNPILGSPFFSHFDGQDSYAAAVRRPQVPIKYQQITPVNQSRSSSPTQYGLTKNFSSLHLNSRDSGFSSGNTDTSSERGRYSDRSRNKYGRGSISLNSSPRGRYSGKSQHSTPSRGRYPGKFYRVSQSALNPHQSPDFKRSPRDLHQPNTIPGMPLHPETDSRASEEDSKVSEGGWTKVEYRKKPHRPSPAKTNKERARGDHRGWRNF

Structure (SMILES) | R value (isoTOP-ABPP ratio heavy/light) for IA-labeled cysteine of ZAK (ZAK) | R value (isoTOP-ABPP ratio heavy/light) for IA-labeled cysteine of AHSG (AHSG) | proteome reactivity profile, high sensitivity (R>5) cysteine targets [1] | blockade of IA-probe labeling of Cys22 of ZAK (ZAK; 100 μM) | IC50 ([1]; ~700 of 1100 cysteines, 5 HNE concentrations, read-out: IC50 for blockade of IA probe-labeling, vast majority of cysteines) [µM]
CCCCC/C=C/C=C1/C(=O)C=C[C@@H]1C/C=C\CCCC(=O)O [PGJ2, 15-deoxy-Δ12,14-prostaglandin J2] | 4.24 | 5.73 | targeting several cysteines in the proteome |  | 
CCCCCC(O)/C=C/C=O (centres unmarked) [4-HNE, 4-Hydroxynonenal] | >15 | 1.35 | targeting several cysteines in the proteome | completely blocked | > 100
CCCCCCCCCCCCC/C=C/C=O [2-HD, 2-trans-hexadecenal] | 1.05 | 1.12 | no detectable high sensitivity (R>5) targets |  | 
